Test results published in PMC6429200, “Synthesis and Broad Antiviral Activity of Novel 2-aryl-isoindolin-1-ones towards Diverse Enterovirus A71 Clinical Isolates” (Molecules, 2019).
Where “and” joins values, the source holds several entries; their conditions need not be identical. Equal entries are not always repeated.

Legend:
[1] = Cytotoxicity assay (CPE) on Vero cells; type: cell-based; conditions: African green monkey; Vero cells, 3 days of incubation, Reed–Muench; read-out: CC50
Method: (§1) An in-vitro antiviral assay was established using the Africa monkey kidney cell line Vero which was infected with different EV-A71 clinical isolates (BrCr, H, Shenzhen98 and Jiangsu52). A total of 24 synthetic compounds were initially screened in such an assay to determine their inhibitory effect on virus replication at 3-fold diluted concentrations serial (400~0.18 μM). The 50% effective concentration (EC50) of each compound was calculated according to its inhibitory rate values with the Reed–Muench method. The 50% cytotoxic concentration (CC50) was defined as the concentration that inhibited 50% cellular growth in comparison with the controls. The selectivity index (SI) was calculated as CC50/EC50. […] Generally, the EV-A71 H strain was less sensitive to most of the active compounds as compared to the other virus strains.
African green monkey kidney (Vero) cells were purchased from the American Type Culture Collection (ATCC) and were cultured in minimum essential medium (MEM) supplemented with 10% fetal bovine serum (FBS) (GIBCO) and antibiotics (100 U/mL penicillin and […] streptomycin) at 37 °C in a 5% CO2 incubator.
The cytotoxic effects of compounds on Vero cells were detected by the cytopathic effect (CPE) assay. Briefly, cells (3 × 10^4 cells/well) were seeded into 96-well culture plates and incubated overnight. Then, the medium was removed and different concentrations of compounds were applied in triplicate. After 3 days of incubation, the CC50 was defined as the concentration that inhibited 50% cellular growth in comparison with the untreated controls, as calculated by the Reed–Muench method.

[2] = test system: EV-A71 strain BrCr; assay: CPE inhibition assay for anti-EV-A71 in Vero cells, BrCr strain; type: cell-based, Enterovirus 71 (EV-A71)
Method: as §1
EV-A71 strain ShenZhen98 (SZ98) was isolated from the throat swab sample of an HFMD case which occurred in 1998 in China. This was kindly provided by Dr. Qi Jin, Institute of Pathogen Biology, Chinese Academy of Medical Science and Peking Union Medical School, Beijing, China. EV-A71 strains BrCr (VR-1775) and H (VR-1432) were purchased from the ATCC. The EV-A71 strain JS52 was a kind gift from Dr. Xiangzhong Ye, Beijing Wantai Biological Pharmacy Enterprise Co., Ltd. EV-A71 were all passaged in Vero cells.
(§2) The anti-EV-A71 activity of compounds was determined by the CPE inhibition method. Briefly, cells (3 × 10^4 cells/well) were plated into 96-well culture plates for incubation for 24 h. The medium was then removed and cells were infected with EV-A71 with 100TCID50 (50% tissue culture infective doses) in serum-free medium for 1 h at 37 °C. Then, the unbound viruses were removed and various concentrations of compounds were supplemented and incubated for another 48 h. The EC50 was determined by the Reed–Muench method. The selectivity index was calculated as the ratio of CC50/EC50 [15].

[3] = test system: four EV-A71 strains (BrCr, H, Shenzhen98, Jiangsu52); assay: CPE inhibition assay, summary over four EV-A71 strains; type: cell-based, Enterovirus 71 (EV-A71)
Method: as §1, §2

[4] = test system: EV-A71 (H strain) VP1 protein; assay: Western blot of viral VP1 protein in infected Vero cells; type: cell-based, Enterovirus 71 (EV-A71); conditions: H strain MOI = 0.1, 1 h infection then A3 for 24 h
Method: To further confirm the anti-EV-A71 activity, the expression levels of VP1 RNA and protein were determined. Vero cells were infected with the H strain of EV-A71 for 1 h followed by treatment with A3 of various concentrations for another 24 h. […] Meanwhile, the antiviral efficacy of A3 was also tested using viral titer reduction assays.
Vero cells (9 × 10^5 cells/well) were plated into 6-well culture plates for incubation for 16 h. The medium was removed and cells were infected with EV-A71 (H, MOI = 0.1). After 1 h, various concentrations of A3 were supplemented for incubation for another 24 h. The cells were lysed in the M-PER mammalian protein extraction reagent (Thermo, Rockford, IL, USA) containing halt protease inhibitor single-use cocktail (Thermo). The protein concentration was determined by the BCA reagents (Thermo). About 15 μg of proteins was denatured and applied to sodium dodecyl sulfate-polyacrylamide gel electrophoresis (SDS-PAGE). The electrophoresis products were transferred to a polyvinyl idenefluoride (PVDF) film and PVDF membranes were then incubated at room temperature with a specific primary antibody. […]
Figure 2 Compound A3 inhibited EV-A71 replication in vitro. […] Intracellular viral VP1 protein (A) and RNA (B) were determined by Western blot and qRT-PCR assays, respectively. […]

O=C1c2ccccc2CN1c1ccc(Cl)cc1 [Compound A3, 2-(4-chlorophenyl)isoindolin-1-one]
CC50 at 3 days [1]: 257000 ± 35300 nM
BrCr SI ([2]; CC50/EC50): 199
EC50 ([2]; Enterovirus A, EVA71, Vero cells, 100TCID50, 48 h): 1290 ± 240 nM
SI towards four EV-A71 strains ([3]; CC50/EC50, range over four strains): 168-199 and 98–199
IC50 ([3]; Enterovirus A, EV71 / EVA71, read-out: Anti-EV71 IC50): 1290 to 1530 nM
EC50 ([3]; Enterovirus A, EVA71, Vero, read-out: EC50 towards four EV-A71 strains): 1230 to 1760 nM
EC50 fold higher than pirodavir ([3]; relative to reference compound pirodavir): 2–4 fold
viral VP1 protein level [4]: decreased the levels of viral VP1 protein in a dose-dependent manner
